Measurements published in patent US20080262021A1, “1H-Imidazoquinoline Derivatives as Prote In Kinase Inhibitors” (NOVARTIS AG, priority 2003, published 2008).

Key:
[1] = molecular target: T1, ALK (Homo sapiens, UniProt Q9UM73); assay: ALK tyrosine kinase inhibition (GST-ALK filter binding assay); type: biochemical; conditions: for IC50: read-out: IC50 Range Class, inhibition of ALK
T1 construct: using the recombinant kinase domain of the ALK in analogy to the VEGF-R kinase assay
Protocol: See Wood et al., Cancer Res, Vol. 60, No. 8, pp. 2178-2189 (2000). In vitro enzyme assays using GST-ALK protein tyrosine kinase are performed in 96-well plates as a filter binding assay in 20 mM tris-HCl, pH=7.5, 3 mM MgCl2, 10 mM MnCl2, 1 mM DTT, 0.1 μCi/assay (=30 μL) [γ-^33P]-ATP, 2 μM ATP, 3 μg/mL poly (Glu, Tyr 4:1) Poly-EY (Sigma P-0275), 1% DMSO, 25 ng ALK enzyme. Assays are incubated for 10 minutes at ambient temperature. Reactions are terminated by adding 50 μL of 125 mM EDTA, and the reaction mixture is transferred onto a MAIP Multiscreen plate (Millipore, Bedford, Mass., USA), previously wet with methanol, and re-hydrated for 5 minutes with H2O. Following washing (0.5% H3PO4), plates are counted in a liquid scintillation counter. IC50 values are calculated by linear regression analysis of the percentage inhibition. Compared with the control without inhibitor, the compounds of formula (I) inhibit the enzyme activity by 50% (IC50), e.g., in a concentration of from 0.001-0.5 μM, especially from […].

[2] = molecular target: T2, S6K1 (Homo sapiens, UniProt P23443, T412E); assay: S6K1 kinase inhibition (S6K1ΔCT/T412E, TR-FRET); type: biochemical; conditions: read-out: IC50 Range Class, inhibition of S6K1
T2 construct: His (N); made in house; host or cells: Sf9 insect cells (baculovirus, pFastBacHT A), co-infected with GST-PDK1 virus
Excerpt: The DNA fragment encoding S6K1ΔCT/T412E is subcloned to the baculovirus donor vector pFastBacHT A to generate a recombinant baculovirus that expresses S6K1ΔCT/T412E. Transfer vectors for S6K1ΔCT/T412E are transfected into the DH10Bac cell line (GIBCO). After selection of white colonies, they are used for viral DNA (bacmid) preparation. Sf9 cells (American Type Culture Collection) cells are then transfected with the viral DNA using Cellfectin reagent. Virus-containing media is collected from the transfected cell culture and is used for infection to increase its titer. For large-scale protein expression, Sf9 cells are co-infected with S6K1ΔCT/T412E and GST-PDK1 virus-containing media with MOI of 2.25 and 1, respectively. After 3 days, the cells expressing the recombinant enzyme are resuspended in the culture medium with a sterilized cell scraper and harvested by centrifugation. The cells are resuspended in 5 volumes of cell pellet of Extraction Buffer (50 mM MOPS pH 7.0, containing 300 mM NaCl, 0.05% Tween-20, 10 mM sodium pyrophosphate, 50 mM β-glycerophosphate, 0.2 mM cantharidic acid and 1× complete-EDTA protease inhibitor cocktail) and then disrupted with 15 strokes of a Dounce homogenizer followed by sonication on ice. The homogenate is centrifuged at 4° C. for 60 minutes at 48,000×g. The supernatant is clarified with a 5 μm filter and subjected to purification with TALON Superflow Resin (Clontech). First, 1 mL of TALON resin per 5 mL of the supernatant was equilibrated with the Extraction Buffer and resuspended in the supernatant followed by gentle agitation for 20 minutes at RT. After centrifugation at 700×g for 5 minutes, supernatant is removed. The resin is washed twice by adding 10 bed volumes of the Extraction Buffer, agitating for 10 minutes at RT, centrifugating at 700×g for 5 minutes, and discarding the supernatant. The resin is then resuspended with the same volume of the Extraction Buffer and transferred to an disposable chromatography column. The packed column is washed once with 10 bed volumes of the Extraction Buffer and additionally with the same volume of Wash Buffer (5 mM imidazole in the Extraction Buffer). Then, the His-tagged S6K1ΔCT/T412E is eluted with four bed volumes of Elution Buffer (150 mM imidazole in the Extraction Buffer).
Measure of enzyme activity: The kinase assay with purified S6K1ΔCT/T412E is performed with TR-FRET (Time-Resolved Fluorescene Resonance Energy Transfer) technology. First, ATP-dependent phosphorylation of the biotinylated substrate peptide corresponding to residues 229-242 of S6 ribosomal protein (Biot-AKRRRLSSLRASTS) is carried out for 1 hour at 37° C. in […] under humidified air. The kinase reaction mixture of the final volume of 9 μL contains 2.57 ng of purified S6K1ΔCT/T412E protein, 50 mM MOPS (pH 7.0), 0.1 mM EGTA, 0.01 mM Na3VO4, 0.05% Tween-20, 0.01% BSA, 1 mM DTT, 10 mM MgCl2, 3 μM ATP, 0.5 μM biotinylated substrate peptide, 1% of DMSO or the text compounds of the formula (I) at the required concentration in 1% DMSO. For measurement of background, 20 mM of EDTA is added to the reaction mixture. […] Phosphorylated peptide indicative of kinase activity is quantitated by exciting the sample at 330 nm and comparing donor emission at 615 nm and acceptor emission at 665 nm by 2101 EnVision HTS multilabel plate reader (Perkin Elmer). […]

T1 sequence (Q9UM73 1116-1392 limits assumed): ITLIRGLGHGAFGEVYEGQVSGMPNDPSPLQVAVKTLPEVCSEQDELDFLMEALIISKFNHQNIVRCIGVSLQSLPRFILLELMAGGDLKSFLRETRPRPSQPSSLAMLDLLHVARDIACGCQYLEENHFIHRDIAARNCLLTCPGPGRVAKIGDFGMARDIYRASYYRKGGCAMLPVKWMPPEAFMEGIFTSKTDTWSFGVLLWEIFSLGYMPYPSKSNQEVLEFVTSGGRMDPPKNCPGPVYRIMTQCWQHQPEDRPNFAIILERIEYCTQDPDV
T2 sequence (P23443 1-421 T412E): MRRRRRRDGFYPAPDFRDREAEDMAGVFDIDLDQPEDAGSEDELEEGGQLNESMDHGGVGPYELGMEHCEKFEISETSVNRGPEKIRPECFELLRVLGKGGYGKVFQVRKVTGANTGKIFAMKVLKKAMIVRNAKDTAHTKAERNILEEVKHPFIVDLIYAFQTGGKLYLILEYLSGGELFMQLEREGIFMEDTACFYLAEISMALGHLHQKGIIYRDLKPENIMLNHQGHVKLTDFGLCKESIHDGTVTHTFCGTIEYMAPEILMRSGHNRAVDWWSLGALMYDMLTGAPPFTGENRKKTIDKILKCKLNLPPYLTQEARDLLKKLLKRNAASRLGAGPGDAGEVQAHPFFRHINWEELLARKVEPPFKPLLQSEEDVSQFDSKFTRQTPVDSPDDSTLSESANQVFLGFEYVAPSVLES

Row | Compound | IC50 [1] | IC50 [2] | IC50 Range Class, inhibition of ALK [1]
1 | NCCc1ccc(-n2cnc3cnc4ccc(-c5ccc6[nH]ccc6c5)cc4c32)c(Cl)c1 [Example 11, 2-{3-Chloro-4-[8-(1H-indol-5-yl)-imidazo[4,5-c]quinolin-1-yl]-phenyl}-ethylamine] | ≤ 500 nM | ≤ 500 nM | 
2 | NCCc1ccc(-n2cnc3cnc4ccc(-c5ccc6[nH]ccc6c5)cc4c32)cc1F [Example 18, 2-{2-Fluoro-4-[8-(1H-indol-5-yl)-imidazo[4,5-c]quinolin-1-yl]-phenyl}-ethylamine] |  | ≤ 500 nM | B/A
3 | NCCCc1ccc(-n2cnc3cnc4ccc(-c5ccc6[nH]ccc6c5)cc4c32)c(Cl)c1 [Example 48, 3-{3-Chloro-4-[8-(1H-indol-5-yl)-imidazo[4,5-c]quinolin-1-yl]-phenyl}-propylamine] | ≤ 500 nM |  | 
